Results published in PubChem BioAssay (NCI).
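Briefly, cells in 96-well plates were exposed to five compound concentrations for 48 h, and endpoints were estimated by linear interpolation. GI50: concentration for 50% inhibition of growth. TGI: concentration producing complete growth inhibition.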

What was measured:
Experiment in all cases: NCI-60 cell line screen, 48 h
[1] = system: 786-0 renal
[2] = system: A498 renal
[3] = system: A549 NSCLC
[4] = system: ACHN renal
[5] = system: BT-549 breast
[6] = system: CAKI-1 renal
[7] = system: CCRF-CEM leukemia
[8] = system: COLO 205 colon
[9] = system: DU-145 prostate
[10] = system: EKVX NSCLC
[11] = system: HCC-2998 colon
[12] = system: HCT-116 colon
[13] = system: HCT-15 colon
[14] = system: HL-60(TB) leukemia
[15] = system: HOP-62 NSCLC
[16] = system: HOP-92 NSCLC
[17] = system: HS 578T breast
[18] = system: HT29 colon
[19] = system: IGROV1 ovarian
[20] = system: K-562 leukemia
[21] = system: KM12 colon
[22] = system: LOX IMVI melanoma
[23] = system: M14 melanoma
[24] = system: MALME-3M melanoma
[25] = system: MCF7 breast
[26] = system: MDA-MB-231 breast
[27] = system: MDA-MB-435
[28] = system: MOLT-4 leukemia

O=C(/C=C/c1cccc(O)c1)c1cccc(-n2cc(-c3ccc(Cl)cc3)[nH]c2=O)c1
GI50 [1]: 1.57 µM | TGI [1]: 2.99 µM | GI50 [2]: 3.71 µM | TGI [2]: 16.1 µM | GI50 [3]: 3.55 µM | TGI [3]: > 100 µM | GI50 [4]: 1.84 µM | TGI [4]: 4.13 µM | GI50 [5]: 1.45 µM | TGI [5]: 3.72 µM | GI50 [6]: 1.72 µM | TGI [6]: 4.07 µM | GI50 [7]: 1.76 µM | TGI [7]: 9.97 µM | GI50 [8]: 2.29 µM | TGI [8]: 4.95 µM | GI50 [9]: 1.68 µM | TGI [9]: 4.18 µM | GI50 [10]: 2.4 µM | TGI [10]: 9.62 µM | GI50 [11]: 13.7 µM | TGI [11]: 27.6 µM | GI50 [12]: 1.23 µM | TGI [12]: 2.52 µM | GI50 [13]: 2.34 µM | TGI [13]: 10.5 µM | GI50 [14]: 1.09 µM | TGI [14]: 3.51 µM | GI50 [15]: 2.36 µM | TGI [15]: 4.88 µM | GI50 [16]: 1.6 µM | TGI [16]: 5.41 µM | GI50 [17]: 4 µM | TGI [17]: 44 µM | GI50 [18]: 1.9 µM | TGI [18]: 3.99 µM | GI50 [19]: 1.92 µM | TGI [19]: 6.38 µM | GI50 [20]: 0.405 µM | TGI [20]: 3.63 µM | GI50 [21]: 1.34 µM | TGI [21]: 3 µM | GI50 [22]: 1.57 µM | TGI [22]: 3.11 µM | GI50 [23]: 2.01 µM | TGI [23]: 4.44 µM | GI50 [24]: 1.83 µM | TGI [24]: 6.16 µM | GI50 [25]: 1.29 µM | TGI [25]: 3.76 µM | GI50 [26]: 3.35 µM | TGI [26]: 17.3 µM | GI50 [27]: 2.06 µM | TGI [27]: 6.64 µM | GI50 [28]: 0.535 µM
